In patent US20210070748A1, “INHIBITORS OF BRUTONS TYROSINE KINASE” (Pharmacyclics LLC, priority 2015, published 2021) one finds IC50 data, which are given here for 13 compounds.

Common to all, as to type: biochemical
The target in one experiment is T1, JAK3 (Homo sapiens, UniProt P52333).
T1 sequence (P52333 1-1124): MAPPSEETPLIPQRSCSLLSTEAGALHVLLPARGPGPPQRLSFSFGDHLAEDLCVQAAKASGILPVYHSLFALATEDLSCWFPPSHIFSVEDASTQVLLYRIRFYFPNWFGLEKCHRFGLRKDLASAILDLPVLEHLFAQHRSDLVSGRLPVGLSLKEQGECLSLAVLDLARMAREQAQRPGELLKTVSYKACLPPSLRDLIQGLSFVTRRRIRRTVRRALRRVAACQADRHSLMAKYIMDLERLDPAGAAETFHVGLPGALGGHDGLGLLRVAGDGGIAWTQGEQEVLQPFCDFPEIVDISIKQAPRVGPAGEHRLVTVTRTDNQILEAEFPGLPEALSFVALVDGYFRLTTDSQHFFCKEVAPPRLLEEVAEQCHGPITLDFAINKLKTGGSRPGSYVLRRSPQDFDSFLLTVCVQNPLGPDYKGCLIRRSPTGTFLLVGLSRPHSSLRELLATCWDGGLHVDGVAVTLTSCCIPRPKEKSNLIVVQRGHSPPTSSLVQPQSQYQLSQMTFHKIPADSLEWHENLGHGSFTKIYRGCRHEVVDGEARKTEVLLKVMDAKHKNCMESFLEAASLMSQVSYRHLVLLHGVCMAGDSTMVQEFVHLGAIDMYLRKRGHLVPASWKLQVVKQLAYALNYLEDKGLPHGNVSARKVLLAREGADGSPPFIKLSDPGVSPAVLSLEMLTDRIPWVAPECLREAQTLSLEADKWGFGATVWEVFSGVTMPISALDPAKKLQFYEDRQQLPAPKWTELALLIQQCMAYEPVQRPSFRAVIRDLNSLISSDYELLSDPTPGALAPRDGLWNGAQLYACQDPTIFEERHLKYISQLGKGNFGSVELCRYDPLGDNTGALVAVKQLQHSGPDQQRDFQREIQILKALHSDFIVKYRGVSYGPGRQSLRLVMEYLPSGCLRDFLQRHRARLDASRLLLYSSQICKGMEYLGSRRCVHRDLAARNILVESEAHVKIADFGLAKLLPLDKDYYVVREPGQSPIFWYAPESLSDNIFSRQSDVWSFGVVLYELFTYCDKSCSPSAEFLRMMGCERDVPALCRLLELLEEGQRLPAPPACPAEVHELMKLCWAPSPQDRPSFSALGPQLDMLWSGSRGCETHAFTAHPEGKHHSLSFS
In words: Inhibition of a panel of kinases, in vitro HotSpot kinase assay: JAK3. The note with it: D-compounds panel data; 1 μM ATP; read-out: IC50 JAK3.

A further experiment addresses SRC (Homo sapiens, UniProt P12931). The experiment can be described thus: Inhibition of a panel of kinases, in vitro HotSpot kinase assay: SRC. The conditions noted are these: D-compounds panel data; 1 μM ATP. The procedure: (§1) The degree of inhibition of a panel of kinases is determined using the in vitro HotSpot kinase assay (purified enzymes, ^33P-ATP, an appropriate substrate and 1 μM ATP).

Another experiment concerns the target LCK (Homo sapiens, UniProt P06239). The experiment can be described thus: Inhibition of a panel of kinases, in vitro HotSpot kinase assay: LCK. The note with it: D-compounds panel data; 1 μM ATP; read-out: IC50 LCK.
For a further experiment, the target named is T2, ITK (Homo sapiens, UniProt Q08881).
T2 sequence (Q08881 1-620): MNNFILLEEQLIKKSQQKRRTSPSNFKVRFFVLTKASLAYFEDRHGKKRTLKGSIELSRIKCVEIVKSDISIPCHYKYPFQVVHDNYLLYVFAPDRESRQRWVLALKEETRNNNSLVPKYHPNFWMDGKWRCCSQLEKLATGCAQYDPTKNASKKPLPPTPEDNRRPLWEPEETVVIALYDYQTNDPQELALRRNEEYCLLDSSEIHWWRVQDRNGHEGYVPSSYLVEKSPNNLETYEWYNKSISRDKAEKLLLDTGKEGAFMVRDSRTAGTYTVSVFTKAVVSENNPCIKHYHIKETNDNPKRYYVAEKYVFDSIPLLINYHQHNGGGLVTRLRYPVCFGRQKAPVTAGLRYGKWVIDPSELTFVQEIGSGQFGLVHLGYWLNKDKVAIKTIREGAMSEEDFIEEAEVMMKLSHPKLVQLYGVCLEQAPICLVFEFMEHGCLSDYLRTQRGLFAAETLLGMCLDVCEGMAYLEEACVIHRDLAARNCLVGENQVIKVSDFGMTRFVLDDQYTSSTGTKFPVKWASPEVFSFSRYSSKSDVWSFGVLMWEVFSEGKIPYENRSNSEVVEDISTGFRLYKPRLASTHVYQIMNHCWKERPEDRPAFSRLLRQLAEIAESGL
In words: Inhibition of a panel of kinases, in vitro HotSpot kinase assay: ITK. The note with it: D-compounds panel data; 1 μM ATP. The procedure: as §1

A further experiment concerns the target EGFR (Homo sapiens, UniProt P00533). The experiment can be described thus: Inhibition of a panel of kinases, in vitro HotSpot kinase assay: EGFR. The note with it: D-compounds panel data; 1 μM ATP. The procedure:
as §1

SRC, sequence (P12931 whole entry): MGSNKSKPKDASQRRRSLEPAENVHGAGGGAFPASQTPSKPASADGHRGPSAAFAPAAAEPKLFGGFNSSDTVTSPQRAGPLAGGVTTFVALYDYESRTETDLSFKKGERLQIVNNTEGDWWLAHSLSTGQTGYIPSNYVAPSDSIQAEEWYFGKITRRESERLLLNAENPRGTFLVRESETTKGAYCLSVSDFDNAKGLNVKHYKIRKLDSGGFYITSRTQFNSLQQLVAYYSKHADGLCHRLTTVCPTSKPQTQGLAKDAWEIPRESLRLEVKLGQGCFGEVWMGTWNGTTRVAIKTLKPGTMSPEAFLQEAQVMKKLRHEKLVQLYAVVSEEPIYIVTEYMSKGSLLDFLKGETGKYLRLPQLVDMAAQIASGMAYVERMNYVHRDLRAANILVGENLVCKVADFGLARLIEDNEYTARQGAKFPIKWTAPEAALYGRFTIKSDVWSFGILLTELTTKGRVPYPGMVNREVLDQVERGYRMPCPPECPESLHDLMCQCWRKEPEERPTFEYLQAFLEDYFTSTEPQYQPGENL
LCK, sequence (P06239 whole entry): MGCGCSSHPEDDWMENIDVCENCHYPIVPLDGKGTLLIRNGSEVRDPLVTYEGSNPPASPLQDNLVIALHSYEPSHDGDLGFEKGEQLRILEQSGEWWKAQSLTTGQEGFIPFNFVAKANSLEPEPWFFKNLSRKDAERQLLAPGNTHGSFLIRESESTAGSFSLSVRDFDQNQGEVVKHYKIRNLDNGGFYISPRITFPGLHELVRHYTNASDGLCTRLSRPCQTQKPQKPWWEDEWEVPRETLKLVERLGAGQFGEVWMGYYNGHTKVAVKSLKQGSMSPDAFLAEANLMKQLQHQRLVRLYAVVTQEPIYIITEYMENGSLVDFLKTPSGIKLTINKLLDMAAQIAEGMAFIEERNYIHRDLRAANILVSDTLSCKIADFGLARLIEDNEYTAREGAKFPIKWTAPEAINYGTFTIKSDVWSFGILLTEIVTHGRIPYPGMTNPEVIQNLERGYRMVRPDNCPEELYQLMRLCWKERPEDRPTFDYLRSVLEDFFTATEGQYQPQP
EGFR, sequence (P00533 25-1210): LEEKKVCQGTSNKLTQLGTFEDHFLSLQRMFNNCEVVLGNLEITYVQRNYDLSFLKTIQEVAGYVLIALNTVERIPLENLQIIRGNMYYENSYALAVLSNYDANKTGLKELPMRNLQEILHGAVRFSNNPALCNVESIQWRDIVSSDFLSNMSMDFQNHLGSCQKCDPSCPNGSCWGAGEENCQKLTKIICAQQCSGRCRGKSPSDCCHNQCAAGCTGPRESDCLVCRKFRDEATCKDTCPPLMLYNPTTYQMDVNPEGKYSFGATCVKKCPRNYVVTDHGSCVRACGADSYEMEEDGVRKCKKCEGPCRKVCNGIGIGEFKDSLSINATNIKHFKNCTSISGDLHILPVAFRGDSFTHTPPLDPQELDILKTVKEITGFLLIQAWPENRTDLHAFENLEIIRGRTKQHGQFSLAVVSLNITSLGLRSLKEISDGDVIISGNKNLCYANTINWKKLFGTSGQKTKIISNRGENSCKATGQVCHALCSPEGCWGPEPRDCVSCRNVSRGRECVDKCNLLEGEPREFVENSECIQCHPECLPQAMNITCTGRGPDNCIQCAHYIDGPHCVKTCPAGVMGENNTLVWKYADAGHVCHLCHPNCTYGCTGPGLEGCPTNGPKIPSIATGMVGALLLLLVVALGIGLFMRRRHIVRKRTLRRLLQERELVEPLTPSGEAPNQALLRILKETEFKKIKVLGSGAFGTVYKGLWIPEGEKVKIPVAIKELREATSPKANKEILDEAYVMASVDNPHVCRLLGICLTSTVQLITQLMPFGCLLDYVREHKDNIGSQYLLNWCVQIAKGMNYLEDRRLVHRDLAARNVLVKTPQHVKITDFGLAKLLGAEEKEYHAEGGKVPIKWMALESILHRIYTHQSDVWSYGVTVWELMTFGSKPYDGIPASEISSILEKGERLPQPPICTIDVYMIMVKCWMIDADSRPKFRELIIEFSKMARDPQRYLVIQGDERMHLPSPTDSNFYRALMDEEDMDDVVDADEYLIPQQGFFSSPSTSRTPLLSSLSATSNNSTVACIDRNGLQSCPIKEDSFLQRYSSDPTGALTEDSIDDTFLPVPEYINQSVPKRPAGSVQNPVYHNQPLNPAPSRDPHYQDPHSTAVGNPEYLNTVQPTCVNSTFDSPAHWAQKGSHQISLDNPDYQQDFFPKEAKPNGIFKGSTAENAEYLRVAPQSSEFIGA

With `C[C@@H]1[C@H](NC(=O)c2ccc(C3CC3)cc2Cl)CCCN1c1cnc(C(N)=O)c(Nc2cnn(C)c2)n1` [Example D-20, 5-[(2R,3R)-3-(2-chloro-4-cyclopropylbenzamido)-2-methylpiperidin-1-yl]-3-[(1-methyl-1H-pyrazol-4-yl)amino]pyrazine-2-carboxamide], the half-maximal inhibitory concentration (IC50) on JAK3 lay in the range of 1000 to 10000 nM; against SRC, 100 to 1000 nM; at LCK it was 100 to 1000 nM; against ITK, 1000 to 10000 nM; against EGFR it was 1000 to 10000 nM.

Regarding `C[C@@H]1[C@H](NC(=O)c2ccc3[nH]cnc3c2)CCCN1c1cnc(C(N)=O)c(Nc2cnn(C)c2)n1` [Example D-262, N-[(2R,3R)-1-{5-carbamoyl-6-[(1-methyl-1H-pyrazol-4-yl)amino]pyrazin-2-yl}-2-methylpiperidin-3-yl]-1H-1,3-benzodiazole-5-carboxamide], the IC50 on JAK3 is 1000 to 10000 nM; on SRC, 10 to 100 nM; on LCK it was 10 to 100 nM; against ITK it was 100 to 1000 nM; against EGFR, 1000 to 10000 nM.

As to `C[C@@H]1[C@H](NC(=O)c2ccc(C(C)(C)C)cc2)CCCN1c1cnc(C(N)=O)c(Nc2cnn(C)c2)n1` [Example D-22, 5-[(2R,3R)-3-(4-tert-butylbenzamido)-2-methylpiperidin-1-yl]-3-[(1-methyl-1H-pyrazol-4-yl)amino]pyrazine-2-carboxamide], the IC50 is above 10000 nM at JAK3; 100 to 1000 nM against SRC; 1000 to 10000 nM at LCK; 1000 to 10000 nM against ITK; 1000 to 10000 nM at EGFR.

With `C[C@@H]1[C@H](NC(=O)c2ccc(C3CC3)cc2)CCCN1c1cnc(C(N)=O)c(Nc2cnn(C)c2F)n1` [Example D-290, 5-[(2R,3R)-3-(4-cyclopropylbenzamido)-2-methylpiperidin-1-yl]-3-[(5-fluoro-1-methyl-1H-pyrazol-4-yl)amino]pyrazine-2-carboxamide], the IC50 at JAK3 is above 10000 nM; against SRC, 1000 to 10000 nM; at LCK, 1000 to 10000 nM; on ITK it was above 10000 nM; on EGFR, 1000 to 10000 nM.

Consider `C[C@@H]1[C@H](NC(=O)c2ccc(C(C)(C)C)cc2)CCCN1c1nnc(C(N)=O)c(Nc2cnn(C)c2)n1` [Example D-285, 3-[(2R,3R)-3-(4-tert-butylbenzamido)-2-methylpiperidin-1-yl]-5-[(1-methyl-1H-pyrazol-4-yl)amino]-1,2,4-triazine-6-carboxamide], for which the half-maximal inhibitory concentration (IC50) fell in the range of 100 to 1000 nM on JAK3; 10 to 100 nM at SRC; 10 to 100 nM at LCK; 10 to 100 nM against ITK; 1000 to 10000 nM on EGFR.

For `Cc1c(Nc2nc(N3CCC[C@@H](NC(=O)c4ccc(C5CC5)cc4)[C@H]3C)cnc2C(N)=O)cnn1C` [Example D-271, 5-[(2R,3R)-3-(4-cyclopropylbenzamido)-2-methylpiperidin-1-yl]-3-[(1,5-dimethyl-1H-pyrazol-4-yl)amino]pyrazine-2-carboxamide], the IC50 on JAK3 is above 10000 nM; at SRC it was 1000 to 10000 nM; at LCK it was 1000 to 10000 nM; against ITK, above 10000 nM; on EGFR, 1000 to 10000 nM.

Turning to `CC(=O)N1CCC(n2cc(Nc3nc(N4CCC[C@@H](NC(=O)c5ccc(C6CC6)cc5)[C@H]4C)cnc3C(N)=O)cn2)CC1` [Example D-283, 3-{[1-(1-acetylpiperidin-4-yl)-1H-pyrazol-4-yl]amino}-5-[(2R,3R)-3-(4-cyclopropylbenzamido)-2-methylpiperidin-1-yl]pyrazine-2-carboxamide], the IC50 was in the range of 1000 to 10000 nM on JAK3; 10 to 100 nM on SRC; 10 to 100 nM on LCK; 100 to 1000 nM against ITK; 1000 to 10000 nM on EGFR.

`C[C@@H]1[C@H](NC(=O)c2ccc3c(c2)CCC(C)(C)O3)CCCN1c1cnc(C(N)=O)c(Nc2cnn(C)c2)n1` [Example D-258, 5-[(2R,3R)-3-(2,2-dimethyl-3,4-dihydro-2H-1-benzopyran-6-amido)-2-methylpiperidin-1-yl]-3-[(1-methyl-1H-pyrazol-4-yl)amino]pyrazine-2-carboxamide]: the IC50 at JAK3 lay in the range of 1000 to 10000 nM; on SRC, 10 to 100 nM; at LCK it was 100 to 1000 nM; on ITK it was 100 to 1000 nM; at EGFR, 1000 to 10000 nM.

In the case of `CC(C)n1nnc2cc(C(=O)N[C@@H]3CCCN(c4cnc(C(N)=O)c(Nc5cnn(C)c5)n4)[C@@H]3C)ccc21` [Example D-255, N-[(2R,3R)-1-{5-carbamoyl-6-[(1-methyl-i H-pyrazol-4-yl)amino]pyrazin-2-yl}-2-methylpiperidin-3-yl]-1-(propan-2-yl)-1H-1,2,3-benzotriazole-5-carboxamide], the IC50 on JAK3 was 100 to 1000 nM; on SRC, 10 to 100 nM; at LCK, 100 to 1000 nM; against ITK, 100 to 1000 nM; against EGFR, 1000 to 10000 nM.

With `C[C@@H]1[C@H](NC(=O)c2ccc3ncsc3c2)CCCN1c1cnc(C(N)=O)c(Nc2cnn(C)c2)n1` [Example D-243, N-[(2R,3R)-1-{5-carbamoyl-6-[(1-methyl-1H-pyrazol-4-yl)amino]pyrazin-2-yl}-2-methylpiperidin-3-yl]-1,3-benzothiazole-6-carboxamide], the IC50 was in the range of 100 to 1000 nM on JAK3; 10 to 100 nM against SRC; 10 to 100 nM at LCK; 100 to 1000 nM at ITK; 1000 to 10000 nM on EGFR.

`C[C@@H]1[C@H](NC(=O)c2ccc(C3CC3)nc2)CCCN1c1cnc(C(N)=O)c(Nc2ccc(OC3CCN(C)CC3)cc2)n1` [Example D-294, 5-[(2R,3R)-3-(6-cyclopropylpyridine-3-amido)-2-methylpiperidin-1-yl]-3-({4-[(1-methylpiperidin-4-yl)oxy]phenyl}amino)pyrazine-2-carboxamide]: the IC50 at JAK3 fell in the range of 100 to 1000 nM; against SRC it was 10 to 100 nM; on LCK it was 10 to 100 nM; on ITK it was 10 to 100 nM; at EGFR, 100 to 1000 nM.

For `C[C@@H]1[C@H](NC(=O)c2ccc3nccn3c2)CCCN1c1cnc(C(N)=O)c(Nc2cnn(C)c2)n1` [Example D-266, 5-[(2R,3R)-3-(imidazo[1,2-a]pyridine-6-amido)-2-methylpiperidin-1-yl]-3-[(1-methyl-1H-pyrazol-4-yl)amino]pyrazine-2-carboxamide], the IC50 on JAK3 was 1000 to 10000 nM; at SRC, 10 to 100 nM; at LCK it was 10 to 100 nM; on ITK, 10 to 100 nM; against EGFR, 1000 to 10000 nM.

Turning to `C[C@@H]1[C@H](NC(=O)c2ccc(C3CC3)cc2F)CCCN1c1cnc(C(N)=O)c(Nc2ccc(N3CCNCC3)c(F)c2)n1` [Example D-313, 5-[(2R,3R)-3-(4-cyclopropyl-2-fluorobenzamido)-2-methylpiperidin-1-yl]-3-{[3-fluoro-4-(piperazin-1-yl)phenyl]amino}pyrazine-2-carboxamide], the IC50 on JAK3 lay in the range of 100 to 1000 nM; against SRC, 10 to 100 nM; at LCK, 10 to 100 nM; on ITK, 10 to 100 nM; against EGFR, 100 to 1000 nM.
